One data set has as its system main organs. The settings on record: xenon exposure (Natale et al 1998); cited from earlier work.
For data set [1] the following is noted: in combination with oxygen; cited from earlier work.
The next data set has as its system erythropoietin (EPO). The data set can be described thus: EPO protein expression in neonatal rat brain (western blot). The format is in vivo, Sprague Dawley rats. The settings on record: neonatal rat brains, 75% xenon 2 h, harvested 0-24 h after. The method, then: Sprague Dawley, 7 day neonatal rats were used. All procedures were approved by the Home Office.
The neonatal rats were exposed to 75% xenon for two hours. The gas was administered by gas inhalation. The brains of said rats were then harvested as described below between 0-24 hours after exposure to the xenon gas.
The tissues were homogenised and western blots of neonatal rat brain samples were carried out as described in Example 1.
The primary antibodies were anti-α-tubulin antibody, and monoclonal mouse anti-erythropoietin antibody.
For orientation: A western blot detects proteins with antibodies after separation by electrophoresis.

The next data set has as its system HIF-1α gene. The data set can be described thus: HIF-1α RNA expression in adult mice brains (RT-PCR). The settings on record: 75% xenon and 25% oxygen 2 h, harvested 0-72 h after. The format is in vivo, C57BL/6J mice. How it is done: (§1) Studies were performed on 8- to 12-wk-old C57BL/6J mice (Jackson Labs, Bar Harbor, Me.) that were fed a standard laboratory diet. All procedures were approved by the Home Office.
The mice were exposed to 75% xenon and 25% oxygen for two hours. The xenon gas was administered to the mice by inhalation. The brains of said adult mice were then harvested as described below between 0-72 hours after exposure to the xenon gas.
Total RNA was extracted as described in Example 4. In addition RT-PCR was carried out as described in Example 4. The primers used for the PCR amplifications were: […]

In a further data set the test system is HIF-1α. The data set can be described thus: HIF-1α expression in neonatal rat brain after xenon (immunohistochemistry and western blot). The format is in vivo, Sprague Dawley rats. How it is done:
Studies were performed on Sprague Dawley, 7 day old rats. All procedures were approved by the Home Office.
The rats were exposed to 75% xenon for two hours. The xenon gas was administered to the rats by inhalation. The brains of said rats were then harvested, as described below, between 0-24 hours after exposure to the xenon gas.
Paraffin sections (4 μm) were dewaxed in xylene, rehydrated in a series of ethanol washes, and placed in distilled water before staining procedures. Slides were coated with 3-aminopropyl-tri-ethoxysylane.
For detection of HIF isoforms, monoclonal mouse anti-human HIF-1α antibody (67; Novus Biologicals, Littleton, Colo.) and polyclonal rabbit anti-mouse HIF-2α antibodies (PM8 and PM9, obtained from two different rabbits immunised with a peptide containing amino acids 337 to 439 of mouse HIF-2) were used. PM8 and PM9 were provided by Prof. P H Maxwell, Renal Section, Imperial College London, Hammersmith Campus, Du Cane Road, London, W12 ONN. Specific staining of each HIF-isoform was confirmed in immunoblots by using in vitro transcribed and translated mouse HIF-1 and HIF-2 (TnT T7; Promega, Madison, Wis.) and homogenates of rat endothelial cells.
For immunohistochemical analyses, antibody 67 was used at a dilution of 1:6000 and antibodies PM8 and PM9 were used at dilutions of 1:3000.
Detection of bound antibodies was performed by using biotinylated secondary anti-mouse or anti-rabbit antibodies and a catalysed signal amplification system (Dako, Hamburg, Germany) based on the streptavidin-biotin-peroxidase reaction, according to the instructions provided by the manufacturer. Antigen retrieval was performed for 90 seconds in preheated Dako target retrieval solution, using a pressure cooker. All incubations were performed in a humidified chamber. Between incubations, specimens were washed two to four times in buffer (50 mM Tris-HCl, 300 mM NaCl, 0.1% Tween-20, pH 7.6). […]

For data set [2] the following is noted: xenon gas; cited from earlier work.
The next data set has as its system kidney. In words: Ischaemic-reperfusion renal injury with xenon preconditioning. The format is in vivo, C57BL/6J mice. The method, then:
as §1
The groups of mice were treated as follows: • Naïve=no anaesthesia and no surgery of any kind was carried out on these mice; • Sham=anaesthesia and surgery was carried out on these mice but there was no clamping of the renal pedicle; • Control (or P20)=anaesthesia and surgery together with clamping of the renal pedicle was carried out on these mice but there was but no xenon preconditioning; • XPD group (or XePC24)=mice were exposed to 75% xenon for two hours (XPD=preconditioned with xenon). The xenon gas was administered to the mice by inhalation. Twenty-four hours after this preconditioning the mice then underwent anaesthesia and surgery together with clamping of the renal pedicle; and • Xe=mice were exposed to 75% xenon for two hours but no surgery together with clamping of the renal pedicle was carried out.
Renal injury, as described below, was carried out 24 hours after the mice were exposed to xenon. […]
Kidneys were removed from mice immediately after they were killed, cut in half, fixed in neutral-buffered formalin, and embedded in paraffin. Sections (5 μm thick) of formalin-fixed, paraffin-embedded tissue were mounted on glass slides and stained with haematoxylin-eosin for general histology and quantitative analysis. All tissues were evaluated without investigator knowledge of the group from which it originated.
For quantification of morphologic data, more than 10 low-magnification fields (×200) including both cortex and outer medulla were randomly selected. […] The total score for each kidney was calculated by addition of all 10 scores (maximum score 30). The histology score was assessed in a blinded manner in each group. […] mice were assessed for the control and XPD groups and four mice were assessed for each of the naïve and sham groups.
Mean±SEM are presented. The significant difference in mean values was evaluated by either a t test or by Dunnett paired t test for multiple comparisons. […]

The mark [3] stands for this setting: XePC24 group compared to P20 group (no preconditioning).

Data on 1 compound can be found in patent US20090252814A1, “USE OF XENON FOR ORGAN PROTECTION” (priority 2005, published 2009).

Turning to `[Xe]` [xenon], the “toxic effects on main organs” value in the data set with main organs is recorded as “does not induce significant toxic effects”. For the same compound, in data set [1], the “concentrations exhibiting anaesthetic effects” value is on record as 10-70 vol. %. Besides, in the data set with erythropoietin (EPO), the “expression of EPO protein” value is on record as “time-dependent increase”. Also, the “transcription of the HIF-1α gene” value in the data set on HIF-1α gene was “does not modulate”. In the data set with HIF-1α (6 hours after exposure to 75% xenon, immunohistochemistry), the “expression of HIF-1α and HIF-1β in pyramidal cells in the hippocampus” value was “induces expression”. Further, the “HIF-1α positive cells in cortex” value in the data set with HIF-1α (6 hrs after 2 h exposure to 75% xenon, immunohistochemistry) is “clearly detected”. The “HIF-1α expression in the brain” value in the data set with HIF-1α (7 day old rats, 75% xenon 2 h, brains harvested 0-24 h after, western blot) is listed as “time-dependent increase”. Besides, in data set [2], the “specific gravity or density” value is 5.887 g/L. In the data set with kidney (75% xenon 2 h, 24 h before 20 min ischaemia and 24 h reperfusion, histology score), the “morphologic injury in the kidney” value was “decreased”. Moreover, in the data set on kidney (setting [3]), the “amount of creatinine in blood plasma” value is recorded as “significantly decreases” and the “amount of urea nitrogen in blood plasma” value is on record as “significantly decreases”.
